Measured values reported in PubChem BioAssay (NCI).
“And” between values parts separate entries of the source, which are not always exact repeats. Equal values may be shown once.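 Five concentrations, 48 hours, 96-well plates. At the GI50, growth is halved. TGI marks complete inhibition of growth.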

Key:
Test in all cases: NCI tumour cell line growth inhibition, 48 h
UACC-257 melanoma = system: UACC-257 melanoma
SW-620 colon = system: SW-620 colon
HCT-116 colon = system: HCT-116 colon
MDA-MB-231 breast = system: MDA-MB-231 breast
NCI-H226 lung = system: NCI-H226 lung
KM12 colon = system: KM12 colon
UO-31 renal = system: UO-31 renal
K-562 leukemia = system: K-562 leukemia
HOP-62 NSCLC = system: HOP-62 NSCLC
OVCAR-4 ovarian = system: OVCAR-4 ovarian

SMILES	GI50 (UACC-257 melanoma)	TGI (UACC-257 melanoma)	GI50 (SW-620 colon)	TGI (SW-620 colon)	GI50 (HCT-116 colon)	TGI (HCT-116 colon)	GI50 (MDA-MB-231 breast)	TGI (MDA-MB-231 breast)	GI50 (NCI-H226 lung)	TGI (NCI-H226 lung)	GI50 (KM12 colon)	TGI (KM12 colon)	GI50 (UO-31 renal)	TGI (UO-31 renal)	GI50 (K-562 leukemia)	TGI (K-562 leukemia)	GI50 (HOP-62 NSCLC)	TGI (HOP-62 NSCLC)	GI50 (OVCAR-4 ovarian)	TGI (OVCAR-4 ovarian)
N#Cc1ccccc1C#C/C=C\C#Cc1cnccn1	26.5 µM	> 82.3 µM	5.85 µM	> 41.9 µM	12.5 µM	> 100 µM	11.1 µM	44.1 µM	26.6 µM	> 83.1 µM	3.49 µM	> 31.5 µM	44 µM	> 100 µM	4.73 µM	> 100 µM	29.3 µM	> 64.6 µM	36 µM	> 100 µM
COc1ccc(/C=C2\CN(Cc3cn(CCCNc4ccnc5cc(Cl)ccc45)nn3)C/C(=C\c3ccc(OC)cc3)C2=O)cc1	8.28 µM	23.3 µM	1.69 µM	3.57 µM	2.8 µM	12.4 µM	5.39 µM	28.4 µM	25.5 µM	> 100 µM	1.66 µM	3.39 µM	3.85 µM	21.4 µM	2.65 µM	11.7 µM	19.4 µM	35.5 µM	7.37 µM	28.1 µM
CCOC(=O)c1ccccc1NC(c1ccccc1)c1ccc2cccnc2c1O (stereo not drawn)	2.98 µM	21.5 µM	3.89 µM	> 100 µM	3.41 µM	80.1 µM	5.59 µM	72.7 µM	2.69 µM	13.9 µM	3.99 µM	> 100 µM	2.03 µM	> 100 µM	3.34 µM	> 100 µM	3.31 µM	> 100 µM	3.21 µM	> 100 µM
N#Cc1c(-c2ccc(Cl)cc2)n([O-])c2ccccc2[n+]1=O	18.2 µM	34.4 µM	12.7 µM	34.1 µM	3.03 µM	11.1 µM	6.95 µM	24.2 µM	18.1 µM	46.7 µM	14.3 µM	28.7 µM	13.7 µM	29.7 µM	2 µM	4.01 µM	16.7 µM	30.9 µM	2.94 µM	8.82 µM
C[CH2][Ge]1([CH2]C)[CH2]CC2(CCN(CCCN(C)C)C2)C[CH2]1	1.31 µM	2.64 µM	1.46 µM and 1.65 µM	2.89 µM and 2.31 µM	1.45 µM	2.79 µM and 1 µM	1.46 µM	2.96 µM	2.24 µM and 17.3 µM	4.92 µM and 32.1 µM	1.83 µM and 10.2 µM	4.02 µM and 22.2 µM	1.22 µM and 1.91 µM	2.48 µM and 3.68 µM	0.237 µM and 1.11 µM	2.36 µM and 5.13 µM	0.949 µM and 4.87 µM	1.89 µM and 9.25 µM	0.694 µM and 4.41 µM	6.79 µM and 11.6 µM
COc1cc(C2C3=C(COC3=O)N(CCO)c3cc4c(cc32)CCC4)cc(OC)c1OC (stereo not drawn)	–	> 32.5 µM	0.126 µM	> 32.5 µM	0.0919 µM	0.409 µM	0.137 µM	> 32.5 µM	0.417 µM	> 32.5 µM	0.0707 µM	0.29 µM	0.228 µM	> 17 µM	0.0955 µM	> 10.4 µM	0.121 µM	> 32.5 µM	0.14 µM	> 20.9 µM
COc1ccc(/C=C2\CC(C)CC3C2=NN(C(C)=O)C3c2ccc(OC)c(OC)c2)cc1OC (stereo not drawn)	18.1 µM	33.9 µM	26.1 µM	67.1 µM	13.7 µM	26.6 µM	24.5 µM	> 100 µM	18.8 µM	> 100 µM	19.7 µM	42.1 µM	13.3 µM	29.6 µM	13 µM	> 100 µM	17.1 µM	37.2 µM	19.7 µM	84.3 µM
CNCc1ccc(C)c(NC(=O)c2ccc(Nc3nc(-c4ccccc4)c4ccccc4n3)cc2)c1	1.92 µM	3.73 µM	1.84 µM	3.57 µM	1.68 µM	3.1 µM	1.74 µM	3.43 µM	1.98 µM	4.9 µM	1.97 µM	3.88 µM	1.67 µM	3.75 µM	1.91 µM	4.54 µM	1.96 µM	3.67 µM	1.84 µM	4.79 µM
Cn1c([N+](=O)[O-])cnc1/C=C1\Oc2ccc(Cl)cc2C1=O	1.95 µM	5.2 µM	0.181 µM	0.66 µM	0.247 µM	0.793 µM	0.783 µM	4.64 µM	1.64 µM	4.64 µM	0.36 µM	1.47 µM	0.394 µM	2.97 µM	0.765 µM	> 26.9 µM	1.6 µM	4.78 µM	1.7 µM	5.71 µM
Cc1nn(-c2ccccc2)c2ncc3c(c12)C(=O)N(Cc1ccccc1)C3=O	> 100 µM	> 100 µM	> 100 µM	> 100 µM	1.21 µM	6.67 µM	5.11 µM	50.2 µM	3.46 µM	13 µM	> 100 µM	> 100 µM	2.65 µM	8.17 µM	3.73 µM	41.9 µM	3.73 µM	13.8 µM	2.18 µM	5.48 µM
Nc1cc2[nH]c(=O)c3cc(Cl)ccc3c2cc1Cl	–	53.4 µM	–	> 100 µM	–	68.8 µM	–	68.6 µM	–	28.1 µM	–	> 100 µM	–	30.5 µM	–	> 100 µM	–	63.1 µM	–	> 100 µM
COc1ccc(C2CC(c3ccc(OC)c(OC)c3)=NN2C(=O)c2cc(OC)c(OC)c(OC)c2)cc1 (stereo not drawn)	> 31.5 µM	> 100 µM	3.7 µM	> 100 µM	2.23 µM	> 100 µM	3.09 µM	> 100 µM	3.06 µM	> 100 µM	2.31 µM	> 63.1 µM	0.864 µM	> 100 µM	1.2 µM	> 100 µM	1.78 µM	> 100 µM	> 23.8 µM	> 100 µM
O=C1/C(=C/c2ccc([N+](=O)[O-])s2)Oc2ccc(Cl)cc21	0.63 µM	2.25 µM	0.206 µM	0.49 µM	0.222 µM	0.535 µM	0.231 µM	0.586 µM	1.39 µM	3.93 µM	0.24 µM	0.593 µM	0.152 µM	0.295 µM	0.133 µM	0.909 µM	0.775 µM	3 µM	0.406 µM	0.897 µM
CC(C)(O)C1CC(=O)C(C)(C2C(O)CC3(C)C4CC=C5C(CCC(O)C5(C)C)C4(C)C(=O)CC23C)O1 (stereo not drawn)	–	> 100 µM	–	> 100 µM	–	> 100 µM	–	> 100 µM	–	> 100 µM	–	> 100 µM	–	> 100 µM	–	> 100 µM	–	> 100 µM	–	> 100 µM
COc1c(C)cnc(Cn2cnc3c(Cl)nc(N)nc32)c1C	0.297 µM	9.57 µM	0.113 µM	> 100 µM	0.12 µM	> 100 µM	0.559 µM	> 72.9 µM	0.594 µM	> 100 µM	0.0854 µM	–	0.141 µM	> 47.4 µM	0.187 µM	> 100 µM	0.405 µM	> 100 µM	7.17 µM	> 100 µM
CCCCc1ccc(C(N)=O)nc1	> 100 µM	> 100 µM	> 100 µM	> 100 µM	> 100 µM	> 100 µM	> 100 µM	> 100 µM	> 100 µM	> 100 µM	> 100 µM	> 100 µM	> 100 µM	> 100 µM	> 100 µM	> 100 µM	> 100 µM	> 100 µM	> 100 µM	> 100 µM
CN1CCN(Cc2ccc(NC(=O)c3cncc(C#Cc4c(N)ncc5ccc(F)cc45)c3)cc2C(F)(F)F)CC1	0.694 µM	1.69 µM	0.206 µM	1.13 µM	0.211 µM	1.37 µM	0.24 µM	1.15 µM	0.4 µM	1.75 µM	0.005 µM	0.939 µM	0.688 µM	1.5 µM	0.005 µM	1.07 µM	1.17 µM	4.67 µM	0.825 µM	3.87 µM
